Our source for the EC50 values is patent US20250195464A1, “ALOTAKETAL COMPOUNDS AND DERIVATIVES THEREOF FOR USE AS ANTIVIRAL AGENTS” (priority 2022, published 2025).

Read-outs that look alike come from different tables or passages of the source.

The subject of the assay is SARS-CoV-2 Omicron. Put plainly: microbe, parasite or virus in culture. Format: cell-based. The conditions noted are these: Severe acute respiratory syndrome coronavirus 2, Calu-3.

As to `CC(=O)O[C@]1(C)C[C@@H](/C=C(\C)CCC=C(C)C)O[C@@]2(C=C(CO)[C@H]3CC(=O)C(C)=C[C@H]3O2)C1` [Alotaketal C], the EC50 (as a rule, the concentration at which the effect is half-maximal) is 140 nM (read-out: Nucleocapsid EC50, Omicron) and 1540 nM (read-out: dsRNA EC50, Omicron).
